The values below are quoted from earlier work in paper PMC11125331, “Pharmaceutical Compounding in Veterinary Medicine: Suspension of Itraconazole” (Pharmaceutics, 2024).

As usually defined, the Solubility is the concentration that dissolves in the medium under given conditions.

Like-named read-outs stand apart in the source and are kept apart here.

Details of data set [1]: method as in PMID 28627123.
The subject of data set [2] is dogs. Further details: method as in PMID 35245984, PMID 34109637. As to conditions: orally at 10 mg/kg.
The subject of data set [3] is cats. Further details: method as in PMID 35245984, PMID 34109637. As to conditions: punctual administrations.
Data set [4] concerns dogs. Details: method as in earlier work.

In the case of `CCC(C)n1ncn(-c2ccc(N3CCN(c4ccc(OCC5COC(Cn6cncn6)(c6ccc(Cl)cc6Cl)O5)cc4)CC3)cc2)c1=O` (centres unmarked) [Itraconazole], the “Biopharmaceutical Classification System class” value is “class II”. For the same molecule, the “Concentration in skin and hair relative to plasma levels” value in data set [1] was “ten times higher than plasma levels”. Further, the “log P (n-octanol/water)” value (at pH 8.1) is given as 5.66. Further, where the note is “in 0.1 M chlorhydric acid (HCl)”, the Solubility is 4 to 6 µg/mL. Further, for the setting “in water”, the Solubility was 0.001 to 0.004 µg/mL.

Take polysorbate 80: in data set [2], the Adverse effects entry is “produces cardiovascular changes and hypersensitivity effects”. For the same molecule, in data set [3], the Safety entry was “safe”.

As to `OC[C@@H](O)[C@H](O)[C@@H](O)CO` [xylitol], the Adverse effects result in data set [4] is listed as “can cause severe hypoglycemia”.
